Reference: patent US7435820B2, “Substituted tetrahydro-1H-pyrazolo [3,4-c]pyridines compositions comprising them, and use” (Aventis Pharma S.A., priority 2003, dated 2008)

Assays:
human KDR enzyme = target: T1, human KDR enzyme (Homo sapiens, UniProt P35968); assay: KDR kinase inhibition: phosphorylation of PLCγ SH2-SH3 substrate by KDR enzyme, 33P-ATP scintillation plate; type: biochemical; settings: read-out: KDR % Inhib. 10 μM
T1 construct: The cytoplasmic domain of the human KDR enzyme was cloned in GST fusion form; GST; made in house; host or cells: SF21 insect cells (baculovirus, pFastBac)
Method: The inhibitory effect of the compounds is determined in an assay for phosphorylation of substrate by the KDR enzyme in vitro using a scintillation technique (96-well plate, NEN).
The cytoplasmic domain of the human KDR enzyme was cloned in GST fusion form into the baculovirus expression vector pFastBac. The protein was expressed in SF21 cells and purified to approximately 60% homogeneity. The KDR kinase activity is measured in 20 mM MOPS, 10 mM MgCl2, 10 mM MnCl2, 1 mM DTT, 2.5 mM EGTA, 10 mM b-glycerophosphate, pH=7.2, in the presence of 10 mM MgCl2, 100 μM Na3VO4 and 1 mM NaF. 10 μl of the compound are added to 70 μl of kinase buffer containing 100 ng of KDR enzyme at 4° C. The reaction is initiated by adding 20 μl of solution containing 2 μg of substrate (SH2-SH3 fragment of PLCγ expressed in the form of an GST fusion protein), 2 μCi γ ^33P[ATP] and 2 μM cold ATP. After incubation for 1 hour at 37° C., the reaction is stopped by adding 1 volume (100 μl) of 200 mM EDTA. The incubation buffer is removed and the wells are washed three times with 300 μl of PBS. The radioactivity is measured in each well using a Top Count NXT (Packard) radioactivity counter.
The background noise is determined by measuring the radioactivity in four different wells containing the radioactive ATP and the substrate alone.
A total activity control is measured in four different wells containing all the reagents (γ^33P-[ATP], KDR and PLC-γ substrate) but in the absence of compound.
The inhibition of the KDR activity with the compound of the invention is expressed as percentage inhibition of the control activity determined in the absence of compound.
The compound SU5614 (Calbiochem) (1 μM) is included in each plate as inhibition control.

human Tie2 = target: T2, human Tie2 (Homo sapiens, UniProt Q02763); assay: Tie2 kinase inhibition: phosphorylation of GST-PLC (SH2-SH3 fragments) by GST-Tie2, 33P-ATP flashplate; type: biochemical; settings: read-out: Tie2 % Inhib. 10 μM
T2 construct: human Tie2 corresponding to amino acids 776-1124 of the intracellular domain was generated by PCR; made in house; host or cells: baculovirus expression system (vector pFastBacGT)
Method: The coding sequence of human Tie2 corresponding to amino acids 776-1124 of the intracellular domain was generated by PCR using the cDNA isolated from human placenta as model. This sequence was introduced into a baculovirus expression vector pFastBacGT in the form of a GST fusion protein.
The inhibitory effect of the molecules is determined in an assay for phosphorylation of PLC by Tie2 in the presence of GST-Tie2 purified to approximately 80% homogeneity. The substrate is made up of the SH2-SH3 fragments of PLC, the latter being expressed in the form of a GST fusion protein.
The kinase activity of Tie2 is measured in a 20 mM MOPS buffer, pH 7.2, containing 10 mM MgCl2, 10 mM MnCl2, 1 mM DTT and 10 mM of glycerophosphate. A reaction mixture made up of 70 μl of kinase buffer containing 100 ng of GST-Tie2 enzyme per well is placed in a flashplate 96-well plate kept on ice. 10 μl of the molecule to be tested, diluted in DMSO, at a concentration of at most 10% are then added. For a given concentration, each measurement is carried out in quadruplicate. The reaction is initiated by adding 20 μl of solution containing 2 μg of GST-PLC, 2 μM of cold ATP and 1 μCi of ^33P[ATP]. After incubation for 1 hour at 37° C., the reaction is stopped by adding 1 volume (100 μl) of 200 mM EDTA. After removal of the incubation buffer, the wells are washed three times with 300 μl of PBS. The radioactivity is measured on a Wallac MicroBeta 1450.
The inhibition of the Tie2 activity is calculated and expressed as percentage inhibition with respect to the control activity determined in the absence of compound.

T2 sequence (Q02763 776-1124): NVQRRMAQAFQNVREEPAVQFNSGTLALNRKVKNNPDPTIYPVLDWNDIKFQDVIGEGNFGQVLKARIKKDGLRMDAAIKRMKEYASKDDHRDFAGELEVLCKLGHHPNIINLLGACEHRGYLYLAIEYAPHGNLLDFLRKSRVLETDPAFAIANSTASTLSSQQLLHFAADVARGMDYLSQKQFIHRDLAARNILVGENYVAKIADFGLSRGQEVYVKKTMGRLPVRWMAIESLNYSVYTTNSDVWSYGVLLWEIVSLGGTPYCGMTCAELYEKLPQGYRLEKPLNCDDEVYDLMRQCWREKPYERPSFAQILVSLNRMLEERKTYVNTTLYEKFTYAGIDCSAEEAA
T1 sequence (P35968 786-1356 limits assumed): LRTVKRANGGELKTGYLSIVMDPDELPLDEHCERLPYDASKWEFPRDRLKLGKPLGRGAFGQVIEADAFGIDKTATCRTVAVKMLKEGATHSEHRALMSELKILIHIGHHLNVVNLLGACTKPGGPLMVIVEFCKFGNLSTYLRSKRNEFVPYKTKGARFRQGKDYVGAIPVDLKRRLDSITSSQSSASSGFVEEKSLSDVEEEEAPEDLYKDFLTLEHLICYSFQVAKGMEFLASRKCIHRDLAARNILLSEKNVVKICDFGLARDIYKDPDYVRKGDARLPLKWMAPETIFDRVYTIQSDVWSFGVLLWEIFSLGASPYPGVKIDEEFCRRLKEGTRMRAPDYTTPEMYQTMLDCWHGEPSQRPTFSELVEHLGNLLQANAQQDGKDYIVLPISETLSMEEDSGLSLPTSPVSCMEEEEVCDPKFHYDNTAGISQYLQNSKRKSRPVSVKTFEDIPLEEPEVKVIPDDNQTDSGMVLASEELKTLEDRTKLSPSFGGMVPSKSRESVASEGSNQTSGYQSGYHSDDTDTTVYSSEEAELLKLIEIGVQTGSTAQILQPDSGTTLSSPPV

Row | SMILES | inhibition at 10 µM (human KDR enzyme) [%] | inhibition at 10 µM (human Tie2) [%]
1 | COc1cccc(S(=O)(=O)N2CCc3c(n[nH]c3-c3nc4cc(C)c(C)cc4[nH]3)C2)c1 [Chemistry 38] | 20.9 | 84.6
2 | CCS(=O)(=O)N1CCc2c(n[nH]c2-c2nc3cc(C)c(C)cc3[nH]2)C1 [Chemistry 28] | 16.5 | 78.5
3 | Cc1cc2nc(-c3[nH]nc4c3CCN(Cc3ccco3)C4)[nH]c2cc1C [Chemistry 11] | 70.3 | 66.1
4 | Cc1cc2nc(-c3[nH]nc4c3CCN(CC(C)(C)C)C4)[nH]c2cc1C [Chemistry 15] | 39.3 | 69.4
5 | Cc1cc2nc(-c3[nH]nc4c3CCN(C(=O)CC(C)C)C4)[nH]c2cc1C [Chemistry 49] | 12.2 | 84.8
6 | Cc1cc2nc(-c3[nH]nc4c3CCN(C(=O)c3cccc(Cl)c3Cl)C4)[nH]c2cc1C [Chemistry 42] | 52.6 | 97.4
7 | COc1ccccc1NC(=O)N1CCc2c(n[nH]c2-c2nc3cc(C)c(C)cc3[nH]2)C1 [Chemistry 67] | 8.1 | 18.1
8 | CCCS(=O)(=O)N1CCc2c(n[nH]c2-c2nc3cc(C)c(C)cc3[nH]2)C1 [Chemistry 29] | 13.3 | 47.5
9 | CC(=O)N1CCc2c(n[nH]c2-c2nc3cc(C)c(C)cc3[nH]2)C1 [Chemistry 44] | 41.1 | 90.8
10 | Cc1cc2nc(-c3[nH]nc4c3CCN(CC3CC3)C4)[nH]c2cc1C [Chemistry 21] | 1.85 | 33
11 | CCCC(=O)N1CCc2c(n[nH]c2-c2nc3cc(C)c(C)cc3[nH]2)C1 [Chemistry 52] | 29.4 | 89.3
12 | Cc1cc2nc(-c3[nH]nc4c3CCN(C(=O)Cc3ccccc3)C4)[nH]c2cc1C [Chemistry 43] | 10.9 | 84.4
13 | Cc1cc2nc(-c3[nH]nc4c3CCN(C(=O)c3cccc(Cl)c3)C4)[nH]c2cc1C [Chemistry 47] | 78.5 | 87.7
14 | C=CCC(=O)N1CCc2c(n[nH]c2-c2nc3cc(C)c(C)cc3[nH]2)C1 [Chemistry 51] | 38.7 | 72.9
15 | O=C(c1cccnc1)N1CCc2c(n[nH]c2-c2nc3ccccc3[nH]2)C1 [Chemistry 69] | 18.6 | 59.3
16 | Cc1cc2nc(-c3[nH]nc4c3CCN(C(=O)Nc3ccccc3)C4)[nH]c2cc1C [Chemistry 59] | 17.6 | 33.2
17 | Cc1cc2nc(-c3[nH]nc4c3CCN(S(=O)(=O)c3ccccc3Cl)C4)[nH]c2cc1C [Chemistry 31] | 45.7 | 93.2
18 | Cc1cc2nc(-c3[nH]nc4c3CCN(S(=O)(=O)c3ccccc3C)C4)[nH]c2cc1C [Chemistry 36] | 49.4 | 90.8
19 | Cc1cc2nc(-c3[nH]nc4c3CCN(C(=O)NCc3ccccc3)C4)[nH]c2cc1C [Chemistry 60] | 33.5 | 64.8
